These results are taken from ChEMBL document CHEMBL3785080, “Individual and combined antiparasitic effect of six plant metabolites against Leishmania amazonensis and Trypanosoma cruzi” (Bioorg Med Chem Lett, 2016).

One test concerns Trypanosoma cruzi. Briefly: Antiprotozoan activity against intracellular amastigote stage of Trypanosoma cruzi Tulahuen infected in human THP1 cells assessed as reduction in parasite viability after 48 hrs by microplate based assay. In kind it is functional, organism-based. The conditions noted are these: THP-1, 48 h.
Test [1] in a line: Cytotoxicity against human THP1 cells assessed as cell viability after 72 hrs by MTT assay. It counts as functional. The conditions noted are these: THP-1, 72 h. In general terms: Tetrazolium dyes change colour on reduction, which living cells bring about.
The nature of test [2]: Selectivity index, ratio of CC50 for human THP1 cells to IC50 for Trypanosoma cruzi Tulahuen. In kind it is functional, THP-1.
Test [3] is described as follows: Selectivity index, ratio of CC50 for human THP1 cells to IC50 for Leishmania amazonensis. In kind it is functional, THP-1.
The subject of a further test is Leishmania amazonensis. Briefly: Antileishmanial activity against intracellular amastigote stage of Leishmania amazonensis infected in human THP1 cells […] by microplate based assay. In kind it is functional, organism-based.

The IC50 is the midpoint of a concentration-inhibition curve. The term CC50 denotes the concentration giving 50% cytotoxicity. As for `O=C(Cn1ccnc1[N+](=O)[O-])NCc1ccccc1` [BENZNIDAZOLE], in the test with Trypanosoma cruzi, the IC50 is 10.2 µM. The CC50 in test [1] is more than 125 µM. Also, the “Ratio CC50/IC50” value in test [2] is on record as more than 12.

Consider `COc1c(C=O)c(O)cc2c1C(=O)c1ccccc1C2=O` [DAMNACANTHAL], for which, in the test on Trypanosoma cruzi, the IC50 is 39.5 µM. The CC50 in test [1] stood at 31.5 µM. For the same compound, the “Ratio CC50/IC50” value in test [2] was 0.79.

Consider `CC(C)=CCc1c(O)ccc(C(=O)/C=C/c2ccc(O)cc2)c1O` [ISOBAVACHALCONE], for which the CC50 in test [1] turned out to be 36 µM.

Turning to `C[C@@H]1[C@H](O)[C@@H](C)/C=C/C=C/C=C/C=C/C=C/C=C/C=C/[C@H](O[C@@H]2O[C@H](C)[C@@H](O)[C@H](N)[C@@H]2O)C[C@@H]2O[C@](O)(C[C@@H](O)C[C@@H](O)[C@H](O)CC[C@@H](O)C[C@@H](O)CC(=O)O[C@H]1C)C[C@H](O)[C@H]2C(=O)O` [AMPHOTERICIN B], in test [1], the CC50 turned out to be 10 µM. In addition, the “Ratio CC50/IC50” value in test [3] amounted to 142. The IC50 in the test with Leishmania amazonensis came to 0.07 µM.

Take `CC1(C)C=Cc2c(ccc(C(=O)/C=C/c3ccc(O)cc3)c2O)O1`: in test [1], the CC50 amounted to 76.2 µM. Also, in test [3], the “Ratio CC50/IC50” value was determined as 3.31. The same compound yielded an IC50 in the test with Leishmania amazonensis of 23 µM.

On to `CC1(C)C=Cc2c(ccc(C(=O)/C=C/c3ccccc3)c2O)O1` [LONCHOCARPIN], for which the IC50 was 44.5 µM in the test with Trypanosoma cruzi and 21.8 µM with Leishmania amazonensis. The CC50 in test [1] came out at 66 µM. Moreover, the “Ratio CC50/IC50” value was 1.48 in test [2] and 3.03 in test [3].

Consider `CC(C)=CCc1c(O)c(CC=C(C)C)c2c(c1O)C(=O)C[C@@H](c1ccc(O)c(O)c1)O2`, for which the CC50 in test [1] came to 46.3 µM. Also, the “Ratio CC50/IC50” value in test [3] was found to be 1.58. This compound had an IC50 in the test on Leishmania amazonensis of 29.2 µM.

Regarding `COc1c(O)ccc2c1C(O)N(C)c1c-2ccc2cc3c(cc12)OCO3` (centres undefined), in test [1], the CC50 is more than 125 µM. Moreover, the “Ratio CC50/IC50” value in test [3] is on record as more than 7.69. Moreover, the concentration for half-maximal inhibition (IC50) with Leishmania amazonensis is 16.2 µM.
